Experimental data taken from PubChem BioAssay (NCI).
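Protocol summary: plate cells (96-well), add compound at 5 concentrations, incubate 48 h, interpolate endpoints linearly. Here, GI50 denotes the concentration required for 50% inhibition of growth. TGI is the concentration that stops growth completely.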

Experiments:
Assay in all cases: growth of human tumour cells (NCI), 48 h
786-0 renal = system: 786-0 renal
A498 renal = system: A498 renal
A549 NSCLC = system: A549 NSCLC
ACHN renal = system: ACHN renal
BT-549 breast = system: BT-549 breast
CAKI-1 renal = system: CAKI-1 renal
CCRF-CEM leukemia = system: CCRF-CEM leukemia
COLO 205 colon = system: COLO 205 colon
DU-145 prostate = system: DU-145 prostate
EKVX NSCLC = system: EKVX NSCLC
HCC-2998 colon = system: HCC-2998 colon
HCT-116 colon = system: HCT-116 colon
HCT-15 colon = system: HCT-15 colon
HL-60(TB) leukemia = system: HL-60(TB) leukemia
HOP-62 NSCLC = system: HOP-62 NSCLC
HOP-92 NSCLC = system: HOP-92 NSCLC
HS 578T breast = system: HS 578T breast
HT29 colon = system: HT29 colon
IGROV1 ovarian = system: IGROV1 ovarian
K-562 leukemia = system: K-562 leukemia
KM12 colon = system: KM12 colon
LOX IMVI melanoma = system: LOX IMVI melanoma
M14 melanoma = system: M14 melanoma
MALME-3M melanoma = system: MALME-3M melanoma
MCF7 breast = system: MCF7 breast
MDA-MB-231 breast = system: MDA-MB-231 breast
MDA-MB-435 = system: MDA-MB-435
MOLT-4 leukemia = system: MOLT-4 leukemia
NCI-H226 lung = system: NCI-H226 lung
NCI-H23 lung = system: NCI-H23 lung
NCI-H460 lung = system: NCI-H460 lung
NCI-H522 lung = system: NCI-H522 lung
NCI/ADR-RES ovarian = system: NCI/ADR-RES ovarian
OVCAR-3 ovarian = system: OVCAR-3 ovarian
OVCAR-4 ovarian = system: OVCAR-4 ovarian
OVCAR-5 ovarian = system: OVCAR-5 ovarian
OVCAR-8 ovarian = system: OVCAR-8 ovarian
PC-3 prostate = system: PC-3 prostate
RPMI-8226 leukemia = system: RPMI-8226 leukemia
RXF 393 renal = system: RXF 393 renal
SF-268 CNS = system: SF-268 CNS
SF-295 CNS = system: SF-295 CNS
SK-MEL-2 melanoma = system: SK-MEL-2 melanoma
SK-MEL-28 melanoma = system: SK-MEL-28 melanoma
SK-MEL-5 melanoma = system: SK-MEL-5 melanoma
SK-OV-3 ovarian = system: SK-OV-3 ovarian
SN12C renal = system: SN12C renal
SNB-19 CNS = system: SNB-19 CNS
SNB-75 CNS = system: SNB-75 CNS
SR leukemia = system: SR leukemia
SW-620 colon = system: SW-620 colon
T-47D breast = system: T-47D breast
TK-10 renal = system: TK-10 renal
U251 CNS = system: U251 CNS
UACC-257 melanoma = system: UACC-257 melanoma
UACC-62 melanoma = system: UACC-62 melanoma
UO-31 renal = system: UO-31 renal
SF-539 CNS = system: SF-539 CNS

SMILES: CCNCCNc1cc(C2CCCCC2)c(C#N)c2nc3ccccc3n12
- GI50 (786-0 renal): 1.57 µM
- TGI (786-0 renal): 3.04 µM
- GI50 (A498 renal): 1.56 µM
- TGI (A498 renal): 2.95 µM
- GI50 (A549 NSCLC): 2.19 µM
- TGI (A549 NSCLC): 4.76 µM
- GI50 (ACHN renal): 1.79 µM
- TGI (ACHN renal): 3.86 µM
- GI50 (BT-549 breast): 1.77 µM
- TGI (BT-549 breast): 3.64 µM
- GI50 (CAKI-1 renal): 1.82 µM
- TGI (CAKI-1 renal): 3.91 µM
- GI50 (CCRF-CEM leukemia): 1.3 µM
- TGI (CCRF-CEM leukemia): 3.28 µM
- GI50 (COLO 205 colon): 1.58 µM
- TGI (COLO 205 colon): 3.41 µM
- GI50 (DU-145 prostate): 2.37 µM
- TGI (DU-145 prostate): 5.79 µM
- GI50 (EKVX NSCLC): 2.18 µM
- TGI (EKVX NSCLC): 6.84 µM
- GI50 (HCC-2998 colon): 2.53 µM
- TGI (HCC-2998 colon): 6.79 µM
- GI50 (HCT-116 colon): 1.37 µM
- TGI (HCT-116 colon): 2.72 µM
- GI50 (HCT-15 colon): 1.69 µM
- TGI (HCT-15 colon): 3.46 µM
- GI50 (HL-60(TB) leukemia): 1.46 µM
- TGI (HL-60(TB) leukemia): 3.49 µM
- GI50 (HOP-62 NSCLC): 2.28 µM
- TGI (HOP-62 NSCLC): 6.93 µM
- GI50 (HOP-92 NSCLC): 2.28 µM
- TGI (HOP-92 NSCLC): 4.08 µM
- GI50 (HS 578T breast): 2.4 µM
- TGI (HS 578T breast): 5.42 µM
- GI50 (HT29 colon): 1.73 µM
- TGI (HT29 colon): 3.82 µM
- GI50 (IGROV1 ovarian): 2.38 µM
- TGI (IGROV1 ovarian): 7.04 µM
- GI50 (K-562 leukemia): 1.35 µM
- TGI (K-562 leukemia): 4.39 µM
- GI50 (KM12 colon): 2.76 µM
- TGI (KM12 colon): 8.48 µM
- GI50 (LOX IMVI melanoma): 0.568 µM
- TGI (LOX IMVI melanoma): 2.08 µM
- GI50 (M14 melanoma): 1.93 µM
- TGI (M14 melanoma): 3.67 µM
- GI50 (MALME-3M melanoma): 1.8 µM
- TGI (MALME-3M melanoma): 3.48 µM
- GI50 (MCF7 breast): 1.53 µM
- TGI (MCF7 breast): 3.27 µM
- GI50 (MDA-MB-231 breast): 1.95 µM
- TGI (MDA-MB-231 breast): 3.62 µM
- GI50 (MDA-MB-435): 1.73 µM
- TGI (MDA-MB-435): 3.4 µM
- GI50 (MOLT-4 leukemia): 2.04 µM
- TGI (MOLT-4 leukemia): 4.97 µM
- GI50 (NCI-H226 lung): 1.71 µM
- TGI (NCI-H226 lung): 3.32 µM
- GI50 (NCI-H23 lung): 2.06 µM
- TGI (NCI-H23 lung): 5.54 µM
- GI50 (NCI-H460 lung): 1.78 µM
- TGI (NCI-H460 lung): 3.28 µM
- GI50 (NCI-H522 lung): 2.05 µM
- TGI (NCI-H522 lung): 4.4 µM
- GI50 (NCI/ADR-RES ovarian): 2.35 µM
- TGI (NCI/ADR-RES ovarian): 6.82 µM
- GI50 (OVCAR-3 ovarian): 1.7 µM
- TGI (OVCAR-3 ovarian): 3.29 µM
- GI50 (OVCAR-4 ovarian): 2.1 µM
- TGI (OVCAR-4 ovarian): 6.42 µM
- GI50 (OVCAR-5 ovarian): 2.57 µM
- TGI (OVCAR-5 ovarian): 6.56 µM
- GI50 (OVCAR-8 ovarian): 2.93 µM
- TGI (OVCAR-8 ovarian): 7.99 µM
- GI50 (PC-3 prostate): 4.81 µM
- TGI (PC-3 prostate): 16 µM
- GI50 (RPMI-8226 leukemia): 2.11 µM
- TGI (RPMI-8226 leukemia): 5.02 µM
- GI50 (RXF 393 renal): 1.7 µM
- TGI (RXF 393 renal): 3.19 µM
- GI50 (SF-268 CNS): 1.9 µM
- TGI (SF-268 CNS): 4.38 µM
- GI50 (SF-295 CNS): 1.8 µM
- TGI (SF-295 CNS): 3.36 µM
- GI50 (SK-MEL-2 melanoma): 2.29 µM
- TGI (SK-MEL-2 melanoma): 4.71 µM
- GI50 (SK-MEL-28 melanoma): 1.7 µM
- TGI (SK-MEL-28 melanoma): 3.36 µM
- GI50 (SK-MEL-5 melanoma): 1.71 µM
- TGI (SK-MEL-5 melanoma): 3.1 µM
- GI50 (SK-OV-3 ovarian): 1.81 µM
- TGI (SK-OV-3 ovarian): 3.48 µM
- GI50 (SN12C renal): 1.93 µM
- TGI (SN12C renal): 4.02 µM
- GI50 (SNB-19 CNS): 4.9 µM
- TGI (SNB-19 CNS): 18.4 µM
- GI50 (SNB-75 CNS): 1.52 µM
- TGI (SNB-75 CNS): 3.4 µM
- GI50 (SR leukemia): 0.288 µM
- TGI (SR leukemia): 1.04 µM
- GI50 (SW-620 colon): 1.44 µM
- TGI (SW-620 colon): 3.15 µM
- GI50 (T-47D breast): 1.58 µM
- TGI (T-47D breast): 3.42 µM
- GI50 (TK-10 renal): 2.41 µM
- TGI (TK-10 renal): 6.12 µM
- GI50 (U251 CNS): 1.48 µM
- TGI (U251 CNS): 3.42 µM
- GI50 (UACC-257 melanoma): 2.34 µM
- TGI (UACC-257 melanoma): 4.38 µM
- GI50 (UACC-62 melanoma): 1.9 µM
- TGI (UACC-62 melanoma): 3.75 µM
- GI50 (UO-31 renal): 1.66 µM
- TGI (UO-31 renal): 3.36 µM

SMILES: CCOc1ccc(NCC2CC/C(=C\c3ccc(O)cc3)C2=O)cc1 (stereo unspecified)
- TGI (786-0 renal): 18 µM
- TGI (A498 renal): 38.9 µM
- TGI (A549 NSCLC): 48.6 µM
- TGI (ACHN renal): 31.2 µM
- TGI (BT-549 breast): 25.6 µM
- TGI (CAKI-1 renal): 34.3 µM
- TGI (CCRF-CEM leukemia): 49 µM
- TGI (COLO 205 colon): 28.6 µM
- TGI (DU-145 prostate): > 59.9 µM
- TGI (EKVX NSCLC): 39.5 µM
- TGI (HCC-2998 colon): 34 µM
- TGI (HCT-116 colon): 23.6 µM
- TGI (HCT-15 colon): 17.8 µM
- TGI (HL-60(TB) leukemia): 5.33 µM
- TGI (HOP-62 NSCLC): > 67.1 µM
- TGI (HOP-92 NSCLC): 30 µM
- TGI (HS 578T breast): 73.7 µM
- TGI (HT29 colon): 33 µM
- TGI (IGROV1 ovarian): 33.9 µM
- TGI (K-562 leukemia): > 100 µM
- TGI (KM12 colon): 26.8 µM
- TGI (LOX IMVI melanoma): 16.8 µM
- TGI (M14 melanoma): 36 µM
- TGI (MALME-3M melanoma): 28.5 µM
- TGI (MCF7 breast): 18.1 µM
- TGI (MDA-MB-231 breast): 38.4 µM
- TGI (MDA-MB-435): 35.8 µM
- TGI (MOLT-4 leukemia): > 38.4 µM
- TGI (NCI-H226 lung): > 61.2 µM
- TGI (NCI-H23 lung): 50.4 µM
- TGI (NCI-H460 lung): 54.2 µM
- TGI (NCI-H522 lung): 11.7 µM
- TGI (NCI/ADR-RES ovarian): 36.9 µM
- TGI (OVCAR-3 ovarian): 25.5 µM
- TGI (OVCAR-4 ovarian): 31.5 µM
- TGI (OVCAR-5 ovarian): 29 µM
- TGI (OVCAR-8 ovarian): 34.4 µM
- TGI (PC-3 prostate): 30.7 µM
- TGI (RPMI-8226 leukemia): > 25.3 µM
- TGI (RXF 393 renal): 32.7 µM
- TGI (SF-268 CNS): 30.8 µM
- TGI (SF-295 CNS): > 54.6 µM
- TGI (SF-539 CNS): 36.1 µM
- TGI (SK-MEL-28 melanoma): 29.2 µM
- TGI (SK-MEL-5 melanoma): 33.8 µM
- TGI (SK-OV-3 ovarian): > 58.5 µM
- TGI (SN12C renal): 35.6 µM
- TGI (SNB-19 CNS): > 55.2 µM
- TGI (SNB-75 CNS): 27.8 µM
- TGI (SR leukemia): 5.13 µM
- TGI (SW-620 colon): 27.1 µM
- TGI (T-47D breast): 62.2 µM
- TGI (TK-10 renal): 26.2 µM
- TGI (U251 CNS): 30.7 µM
- TGI (UACC-257 melanoma): 30.7 µM
- TGI (UACC-62 melanoma): 37.7 µM
- TGI (UO-31 renal): 33.6 µM
